In general, IC50 refers to the midpoint of a concentration-inhibition curve.

This note sets out measurements from patent US9156845B2, “4-(substituted amino)-7H-pyrrolo[2,3-d] pyrimidines as LRRK2 inhibitors” (Pfizer Inc., priority 2012, dated 2015).

The target of assay [1] is GST-tagged truncated LRRK2 (Homo sapiens (Human), UniProt Q5S007). Kind of assay: LRRK2 Lantha Screen kinase assay. As to conditions: geometric mean of 2-5 determinations unless otherwise indicated (a: >=6 determinations; b: single determination); read-out: LRRK2 WT IC50. Type of assay: biochemical.
GST-tagged truncated LRRK2, sequence (Q5S007 970-2527): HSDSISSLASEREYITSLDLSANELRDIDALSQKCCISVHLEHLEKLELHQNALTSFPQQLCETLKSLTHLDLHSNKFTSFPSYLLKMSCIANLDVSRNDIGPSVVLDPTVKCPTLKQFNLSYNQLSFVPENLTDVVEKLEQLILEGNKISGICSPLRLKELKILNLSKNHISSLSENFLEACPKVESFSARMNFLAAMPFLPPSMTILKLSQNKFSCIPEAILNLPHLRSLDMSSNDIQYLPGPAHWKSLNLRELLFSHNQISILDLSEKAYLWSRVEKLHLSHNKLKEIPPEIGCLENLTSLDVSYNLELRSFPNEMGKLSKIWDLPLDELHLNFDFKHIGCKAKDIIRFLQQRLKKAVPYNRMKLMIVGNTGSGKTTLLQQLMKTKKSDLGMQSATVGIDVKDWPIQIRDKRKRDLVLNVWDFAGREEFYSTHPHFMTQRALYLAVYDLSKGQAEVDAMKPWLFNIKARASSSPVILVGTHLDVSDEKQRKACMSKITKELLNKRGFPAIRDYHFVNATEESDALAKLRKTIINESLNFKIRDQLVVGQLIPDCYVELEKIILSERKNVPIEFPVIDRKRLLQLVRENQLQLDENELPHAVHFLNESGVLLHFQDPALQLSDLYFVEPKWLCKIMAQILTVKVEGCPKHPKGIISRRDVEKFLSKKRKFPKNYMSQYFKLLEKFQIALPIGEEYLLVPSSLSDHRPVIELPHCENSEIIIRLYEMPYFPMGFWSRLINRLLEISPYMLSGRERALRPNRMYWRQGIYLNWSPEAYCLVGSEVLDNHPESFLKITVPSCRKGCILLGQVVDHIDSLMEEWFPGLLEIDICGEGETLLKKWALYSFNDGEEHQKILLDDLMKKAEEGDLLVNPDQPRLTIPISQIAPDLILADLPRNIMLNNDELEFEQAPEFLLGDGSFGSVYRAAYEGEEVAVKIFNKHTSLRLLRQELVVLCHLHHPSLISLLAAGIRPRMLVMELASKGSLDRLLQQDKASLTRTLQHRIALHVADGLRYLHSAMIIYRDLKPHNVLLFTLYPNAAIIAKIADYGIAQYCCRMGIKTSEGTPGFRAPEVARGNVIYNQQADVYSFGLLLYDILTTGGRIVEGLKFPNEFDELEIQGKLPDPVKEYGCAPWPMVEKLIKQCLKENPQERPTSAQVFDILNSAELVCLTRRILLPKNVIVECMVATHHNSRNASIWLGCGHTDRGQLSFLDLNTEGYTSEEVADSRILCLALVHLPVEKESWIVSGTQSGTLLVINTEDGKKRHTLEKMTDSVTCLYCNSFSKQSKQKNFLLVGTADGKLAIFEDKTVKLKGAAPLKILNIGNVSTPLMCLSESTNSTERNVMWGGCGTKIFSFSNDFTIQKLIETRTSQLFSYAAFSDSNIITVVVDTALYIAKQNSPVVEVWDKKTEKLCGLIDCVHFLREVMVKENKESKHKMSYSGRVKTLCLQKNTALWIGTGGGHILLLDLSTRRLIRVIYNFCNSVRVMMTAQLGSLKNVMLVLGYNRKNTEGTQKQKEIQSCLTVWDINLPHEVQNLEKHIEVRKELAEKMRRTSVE
The next assay concerns the target mutant G2019S LRRK2 (Homo sapiens (Human), UniProt Q5S007, G2019S). Kind of assay: LRRK2 Lantha Screen kinase assay, mutant enzyme. Format: biochemical. The conditions noted are these: geometric mean of 2-5 determinations unless otherwise indicated (a: >=6 determinations; b: single determination).

Molecules are shown by their SMILES. Where a name gives a salt, the structure may show the parent alone.

mutant G2019S LRRK2, sequence (Q5S007 970-2527 G2019S): as the sequence (Q5S007 970-2527) above, with G1050S counted along it

Turning to `N#Cc1cccc(-c2c[nH]c3ncnc(N4CCO[C@H]5CCC[C@H]54)c23)c1` (relative stereo) [Example 208, rel-3-{4-[(4aR,7aS)-hexahydrocyclopenta[b][1,4]oxazin-4(4aH)-yl]-7H-pyrrolo[2,3-d]pyrimidin-5-yl}benzonitrile], the IC50 in assay [1] amounted to 27.2 nM; against mutant G2019S LRRK2, 186 nM.

With `CC1CCCN(c2ncnc3[nH]cc(-c4cccc(C#N)c4)c23)C1` (single isomer, unassigned) [Example 41], the IC50 in assay [1] was determined as 70 nM; on mutant G2019S LRRK2, 172 nM.

Consider `CC1CCN(c2ncnc3[nH]cc(-c4cccc(C#N)c4)c23)C1` (single isomer, unassigned) [Example 71], for which the IC50 stood at 21 nM in assay [1] and 102 nM on mutant G2019S LRRK2.

Turning to `COCC1CN(c2ncnc3[nH]cc(-c4cccc(C#N)c4)c23)CCO1` (single isomer, unassigned) [Example 74], the IC50 amounted to 12 nM in assay [1] and 100 nM on mutant G2019S LRRK2.

Regarding `N#Cc1cccc(-c2c[nH]c3ncnc(N4CCOC(c5cc[nH]n5)C4)c23)c1` (single isomer, unassigned) [Example 76, 3-{4-[2-(1H-pyrazol-3-yl)morpholin-4-yl]-7H-pyrrolo[2,3-d]pyrimidin-5-yl}benzonitrile], the IC50 in assay [1] stood at 23 nM; against mutant G2019S LRRK2 it was 208 nM.

On to `CC1CCN(c2ncnc3[nH]cc(-c4cccc(C#N)c4)c23)C1` (single isomer, unassigned) [Example 77], for which the IC50 in assay [1] is 39 nM; at mutant G2019S LRRK2 it was 158 nM.

As to `COCC1CN(c2ncnc3[nH]cc(-c4cccc(C#N)c4)c23)CCO1` (single isomer, unassigned) [Example 197], the IC50 in assay [1] was 214 nM; against mutant G2019S LRRK2, 245 nM.

Regarding `Cc1noc(C2CN(c3ncnc4[nH]cc(-c5cccc(C#N)c5F)c34)CCO2)n1` (single isomer, unassigned) [Example 213], the IC50 in assay [1] was 7.71 nM; against mutant G2019S LRRK2, 95.7 nM.

With `Cc1[nH]c2ncnc(N3CCOCC3)c2c1-c1cccc(C#N)c1` [Example 2, 3-[6-Methyl-4-(morpholin-4-yl)-7H-pyrrolo[2,3-d]pyrimidin-5-yl]benzonitrile], the figures for the IC50 (in assay [1]; at mutant G2019S LRRK2) were 12 nM and 43 nM, respectively.

As to `N#Cc1cccc(-c2c[nH]c3ncnc(N4CCOCC4)c23)n1` [Example 3, 6-[4-(Morpholin-4-yl)-7H-pyrrolo[2,3-d]pyrimidin-5-yl]pyridine-2-carbonitrile], the IC50 in assay [1] was found to be 9 nM; against mutant G2019S LRRK2 it was 26 nM.

For `CN(C)c1ncnc2[nH]cc(-c3cccc(C#N)c3)c12` [Example 5, 3-[4-(Dimethylamino)-7H-pyrrolo[2,3-d]pyrimidin-5-yl]benzonitrile], the IC50 in assay [1] turned out to be 5 nM; against mutant G2019S LRRK2 it was 15 nM.

In the case of `C[C@H]1CN(c2ncnc3[nH]cc(-c4cccc(C#N)c4)c23)CCO1` [Example 6, 3-{4-[(2S)-2-Methylmorpholin-4-yl]-7H-pyrrolo[2,3-d]pyrimidin-5-yl}benzonitrile], the results for the IC50 (in assay [1]; against mutant G2019S LRRK2) were 7 nM and 37 nM, respectively.

Regarding `C[C@H]1CCCN(c2ncnc3[nH]cc(-c4cccc(CO)c4)c23)C1` [Example 7, (3-{4-[(3S)-3-Methylpiperidin-1-yl]-7H-pyrrolo[2,3-d]pyrimidin-5-yl}phenyl)methanol], the IC50 (in assay [1]; against mutant G2019S LRRK2) was 18 nM each time.

As to `c1nc(N2CCOCC2)c2c(-c3cn[nH]c3)c[nH]c2n1` [Example 8, 4-(Morpholin-4-yl)-5-(1H-pyrazol-4-yl)-7H-pyrrolo[2,3-d]pyrimidine, formate salt], the results for the IC50 (in assay [1]; at mutant G2019S LRRK2) were 25 nM and 33 nM, respectively.

`Cc1nc(N2CCOCC2)c2c(-c3cccc(C#N)c3)c[nH]c2n1` [Example 9, 3-[2-Methyl-4-(morpholin-4-yl)-7H-pyrrolo[2,3-d]pyrimidin-5-yl]benzonitrile]: the values for the IC50 (in assay [1]; against mutant G2019S LRRK2) were 42 nM and 513 nM, respectively.

As for `CN(C)c1ncnc2[nH]cc(-c3cccc(CO)c3)c12` [Example 10, {3-[4-(Dimethylamino)-7H-pyrrolo[2,3-d]pyrimidin-5-yl]phenyl}methanol], the IC50 in assay [1] is 34 nM; on mutant G2019S LRRK2, 23 nM.

For the molecule `CC1(C)CCCN(c2ncnc3[nH]cc(-c4cccc(C#N)c4)c23)C1` [Example 11, 3-[4-(3,3-dimethylpiperidin-1-yl)-7H-pyrrolo[2,3-d]pyrimidin-5-yl]benzonitrile], the IC50 came to 90 nM in assay [1] and 325 nM at mutant G2019S LRRK2.

For the molecule `N#Cc1cccc(-c2c[nH]c3ncnc(N4CCCCC4)c23)c1` [Example 12, 3-[4-(piperidin-1-yl)-7H-pyrrolo[2,3-d]pyrimidin-5-yl]benzonitrile], the values for the IC50 (in assay [1]; on mutant G2019S LRRK2) were 6 nM and 28 nM, respectively.

`NC(=O)C1CCCN(c2ncnc3[nH]cc(-c4ccccc4)c23)C1` (stereo not drawn) [Example 13, 1-(5-phenyl-7H-pyrrolo[2,3-d]pyrimidin-4-yl)piperidine-3-carboxamide]: the IC50 stood at 41 nM in assay [1] and 39 nM against mutant G2019S LRRK2.

Consider `N#Cc1cccc(-c2c[nH]c3ncnc(N4CCC[C@H](O)C4)c23)c1` [Example 14, 3-{4-[(3S)-3-hydroxypiperidin-1-yl]-7H-pyrrolo[2,3-d]pyrimidin-5-yl}benzonitrile], for which the IC50 is 17 nM in assay [1] and 95 nM on mutant G2019S LRRK2.

As to `C[C@H]1CCCN(c2ncnc3[nH]cc(-c4ccccc4)c23)C1` [Example 15, 4-[(3S)-3-methylpiperidin-1-yl]-5-phenyl-7H-pyrrolo[2,3-d]pyrimidine], the IC50 in assay [1] was 91 nM; against mutant G2019S LRRK2, 92 nM.

As to `C[C@H]1CCCN(c2ncnc3[nH]cc(-c4cccc(C#N)c4)c23)C1` [Example 16, 3-{4-[(3S)-3-methylpiperidin-1-yl]-7H-pyrrolo[2,3-d]pyrimidin-5-yl}benzonitrile], the IC50 in assay [1] turned out to be 16 nM; at mutant G2019S LRRK2 it was 45 nM.

Turning to `C[C@H]1CCCN(c2ncnc3[nH]cc(-c4cnn(C)c4)c23)C1` [Example 17, 4-[(3S)-3-methylpiperidin-1-yl]-5-(1-methyl-1H-pyrazol-4-yl)-7H-pyrrolo[2,3-d]pyrimidine], the IC50 in assay [1] was 14 nM; at mutant G2019S LRRK2, 12 nM.

Regarding `c1ccc(-c2c[nH]c3ncnc(N4CCCC4)c23)cc1` [Example 18, 5-phenyl-4-(pyrrolidin-1-yl)-7H-pyrrolo[2,3-d]pyrimidine], the results for the IC50 (in assay [1]; against mutant G2019S LRRK2) were 71 nM and 47 nM, respectively.

With `OCC1CCN(c2ncnc3[nH]cc(-c4ccccc4)c23)CC1` [Example 19, [1-(5-phenyl-7H-pyrrolo[2,3-d]pyrimidin-4-yl)piperidin-4-yl]methanol], the IC50 in assay [1] is 38 nM; against mutant G2019S LRRK2, 29 nM.

For `N#CC1CCCN(c2ncnc3[nH]cc(-c4cccc(CO)c4)c23)C1` (stereo not drawn) [Example 20, 1-{5-[3-(hydroxymethyl)phenyl]-7H-pyrrolo[2,3-d]pyrimidin-4-yl}piperidine-3-carbonitrile], the IC50 worked out at 56 nM in assay [1] and 31 nM against mutant G2019S LRRK2.

As for `N#Cc1cccc(-c2c[nH]c3ncnc(N4CCCC(C#N)C4)c23)c1` (stereo not drawn) [Example 21, 1-[5-(3-cyanophenyl)-7H-pyrrolo[2,3-d]pyrimidin-4-yl]piperidine-3-carbonitrile], the results for the IC50 (in assay [1]; at mutant G2019S LRRK2) were 57 nM and 183 nM, respectively.

As for `C[C@@H]1C[C@H](C)CN(c2ncnc3[nH]cc(-c4cnn(C)c4)c23)C1` [Example 22, 4-(3,5-cis-dimethylpiperidin-1-yl)-5-(1-methyl-1H-pyrazol-4-yl)-7H-pyrrolo[2,3-d]pyrimidine], the IC50 (in assay [1]; on mutant G2019S LRRK2) was 16 nM throughout.

On to `COc1ccc(C#N)cc1-c1c[nH]c2ncnc(N3CCCC(C)C3)c12` (stereo not drawn) [Example 23, 4-methoxy-3-[4-(3-methylpiperidin-1-yl)-7H-pyrrolo[2,3-d]pyrimidin-5-yl]benzonitrile], for which the IC50 in assay [1] was 25 nM; against mutant G2019S LRRK2, 46 nM.

As to `COc1ccc(C#N)cc1-c1c[nH]c2ncnc(N(C)C)c12` [Example 24, 3-[4-(dimethylamino)-7H-pyrrolo[2,3-d]pyrimidin-5-yl]-4-methoxybenzonitrile], the IC50 in assay [1] was 24 nM; on mutant G2019S LRRK2, 30 nM.

For `COc1ccc(Cl)cc1-c1c[nH]c2ncnc(N(C)C)c12` [Example 25, 5-(5-chloro-2-methoxyphenyl)-N,N-dimethyl-7H-pyrrolo[2,3-d]pyrimidin-4-amine], the IC50 in assay [1] came out at 22 nM; on mutant G2019S LRRK2, 19 nM.

Consider `N#Cc1cccc(-c2c[nH]c3ncnc(N4CCC(c5ncc[nH]5)CC4)c23)c1` [Example 26, 3-{4-[4-(1H-imidazol-2-yl)piperidin-1-yl]-7H-pyrrolo[2,3-d]pyrimidin-5-yl}benzonitrile], for which the IC50 in assay [1] worked out at 42 nM; on mutant G2019S LRRK2, 230 nM.

Regarding `COCC1CCCN(c2ncnc3[nH]cc(-c4cccc(C#N)c4)c23)C1` (stereo not drawn) [Example 27, 3-{4-[3-(methoxymethyl)piperidin-1-yl]-7H-pyrrolo[2,3-d]pyrimidin-5-yl}benzonitrile], the IC50 was 95 nM in assay [1] and 219 nM on mutant G2019S LRRK2.

For the molecule `CN1CCC2(CC1)CN(c1ncnc3[nH]cc(-c4cccc(C#N)c4)c13)CCO2` [Example 28, 3-[4-(9-methyl-1-oxa-4,9-diazaspiro[5.5]undec-4-yl)-7H-pyrrolo[2,3-d]pyrimidin-5-yl]benzonitrile], the figures for the IC50 (in assay [1]; against mutant G2019S LRRK2) were 40 nM and 201 nM, respectively.

As for `COC1CCCN(c2ncnc3[nH]cc(-c4cccc(C#N)c4)c23)C1` (stereo not drawn) [Example 29, 3-[4-(3-methoxypiperidin-1-yl)-7H-pyrrolo[2,3-d]pyrimidin-5-yl]benzonitrile], the IC50 in assay [1] was determined as 79 nM; on mutant G2019S LRRK2 it was 154 nM.

As for `COCC1CN(c2ncnc3[nH]cc(-c4cccc(C#N)c4)c23)CCO1` (stereo not drawn) [Example 30, 3-{4-[2-(methoxymethyl)morpholin-4-yl]-7H-pyrrolo[2,3-d]pyrimidin-5-yl}benzonitrile], the IC50 in assay [1] came out at 17 nM; against mutant G2019S LRRK2, 121 nM.
